Legend:
Assay in all cases: Test C greenhouse herbicide test, pre- and postemergence
Type in all cases: in vivo
[1] = test system: barnyardgrass (Echinochloa crus-galli)
In short: (§1)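 Seeds sown in loam–sand blend treated preemergence; plants in peat-based medium sprayed postemergence at 2–18 cm (1- to 4-leaf stage); chemicals in non-phytotoxic solvent with surfactant. Greenhouse 13–15 d, then visual rating versus controls on 0–100 scale (0 no effect, 100 complete control).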

[2] = test system: lambsquarters (Chenopodium album)
In short: as §1

[3] = test system: foxtail, giant (giant foxtail, Setaria faberii)
In short: as §1

[4] = test system: morningglory (Ipomoea coccinea)
In short: as §1

[5] = test system: crabgrass, large (large crabgrass, Digitaria sanguinalis)
In short: as §1

[6] = test system: johnsongrass (Sorghum halepense)
In short: as §1

[7] = test system: oilseed rape (Brassica napus)
In short: as §1

[8] = test system: velvetleaf (Abutilon theophrasti)
In short: as §1

soybean (Glycine max) = test system: soybean (Glycine max)
In short: as §1

[9] = test system: pigweed (Amaranthus retroflexus)
In short: as §1

[10] = test system: ragweed (common ragweed, Ambrosia elatior)
In short: as §1

[11] = test system: blackgrass (Alopecurus myosuroides)
In short: as §1

[12] = test system: nutsedge, yellow (yellow nutsedge, Cyperus esculentus)
In short: as §1

[13] = test system: wheat (winter wheat, Triticum aestivum)
In short: as §1

[14] = test system: galium (catchweed bedstraw, Galium aparine)
In short: as §1

[15] = test system: waterhemp (common waterhemp, Amaranthus rudis)
In short: as §1

[16] = Postemergence, 31 g ai/ha, scale 0 to 100 (0 no effect, 100 complete control)
[17] = Postemergence, 62 g ai/ha, 0 to 100 scale (0 no effect, 100 complete control)
[18] = Postemergence, 250 g ai/ha, scale 0 to 100, 0 is no effect, 100 is complete control
[19] = postemergence, 125 g ai/ha, scale 0 to 100, 0 no effect, 100 complete control
[20] = Preemergence, 31 g ai/ha, scale 0 to 100, 0 is no effect, 100 is complete control
[21] = Preemergence, 62 g ai/ha, scale 0 to 100, 0 is no effect, 100 is complete control
[22] = Preemergence, 125 g ai/ha, scale 0 to 100, 0 is no effect, 100 is complete control
[23] = Preemergence, 250 g ai/ha, scale 0 to 100 (0 no effect, 100 complete control)

With `CC(=O)Oc1c(C)nn(C)c(=O)c1-c1c([N+](=O)[O-])ccc2ccccc12` [Compound 164] the “Plant response rating, Barnyardgrass” value [1, 16] was 10, the “Barnyardgrass plant response rating” value [1, 17] was 25 and the “Plant response rating, Barnyardgrass” value [1, 18] was 35. For the same compound, the “Barnyardgrass plant response rating” value [1, 19] was 30, the “Plant response rating, Lambsquarters” value [2, 16] was 70 and the “Lambsquarters plant response rating” value [2, 17] was 85. For the same compound, the “Plant response rating, Lambsquarters” value [2, 18] was 98, the “Lambsquarters plant response rating” value [2, 19] was 85 and the “Plant response rating, Foxtail, Giant” value [3, 16] was 5. For the same compound, the “Foxtail, Giant plant response rating” value [3, 17] was 10, the “Plant response rating, Foxtail, Giant” value [3, 18] was 30 and the “Foxtail, Giant plant response rating” value [3, 19] was 15. For the same compound, the “Plant response rating, Morningglory” value [4, 16] was 80, the “Morningglory plant response rating” value [4, 17] was 85 and the “Plant response rating, Morningglory” value [4, 18] was 90. For the same compound, the “Morningglory plant response rating” value [4, 19] was 90, the “Plant response rating, Crabgrass, Large” value [5, 16] was 0 and the “Crabgrass, Large plant response rating” value [5, 17] was 5. The “Plant response rating, Crabgrass, Large” value [5, 18] was 10, the “Crabgrass, Large plant response rating” value [5, 19] was 10 and the “Plant response rating, Johnsongrass” value [6, 16] was 5. For the same compound, the “Johnsongrass plant response rating” value [6, 17] was 5, the “Plant response rating, Johnsongrass” value [6, 18] was 10 and the “Johnsongrass plant response rating” value [6, 19] was 5. The “Plant response rating, Oilseed Rape” value [7, 16] was 0, the “Oilseed Rape plant response rating” value [7, 17] was 0 and the “Plant response rating, Oilseed Rape” value [7, 18] was 0. The “Oilseed Rape plant response rating” value [7, 19] was 0, the “Plant response rating, Velvetleaf” value [8, 16] was 25 and the “Velvetleaf plant response rating” value [8, 17] was 60. The “Plant response rating, Velvetleaf” value [8, 18] was 70, the “Velvetleaf plant response rating” value [8, 19] was 25 and the “Plant response rating, Soybean” value (soybean (Glycine max); [16]) was 0. The “Soybean plant response rating” value (soybean (Glycine max); [17]) was 0, the “Plant response rating, Soybean” value (soybean (Glycine max); [18]) was 5 and the “Soybean plant response rating” value (soybean (Glycine max); [19]) was 10. For the same compound, the “Plant response rating, Pigweed” value [9, 16] was 70, the “Pigweed plant response rating” value [9, 17] was 80 and the “Plant response rating, Pigweed” value [9, 18] was 85. The “Pigweed plant response rating” value [9, 19] was 85, the “Plant response rating, Ragweed” value [10, 16] was 70 and the “Ragweed plant response rating” value [10, 17] was 80. For the same compound, the “Plant response rating, Ragweed” value [10, 18] was 90, the “Ragweed plant response rating” value [10, 19] was 85 and the “Plant response rating, Blackgrass” value [11, 16] was 5. The “Blackgrass plant response rating” value [11, 17] was 15, the “Plant response rating, Blackgrass” value [11, 18] was 45 and the “Blackgrass plant response rating” value [11, 19] was 40. For the same compound, the “Plant response rating, Nutsedge, Yellow” value [12, 16] was 20, the “Nutsedge, Yellow plant response rating” value [12, 17] was 20 and the “Plant response rating, Nutsedge, Yellow” value [12, 18] was 40. The “Nutsedge, Yellow plant response rating” value [12, 19] was 25, the “Plant response rating, Wheat” value [13, 16] was 5 and the “Wheat plant response rating” value [13, 17] was 5. The “Plant response rating, Wheat” value [13, 18] was 20, the “Wheat plant response rating” value [13, 19] was 10 and the “Plant response rating, Galium” value [14, 16] was 90. The “Galium plant response rating” value [14, 17] was 95, the “Plant response rating, Galium” value [14, 18] was 100 and the “Galium plant response rating” value [14, 19] was 100. For the same compound, the “Plant response rating, Waterhemp” value [15, 16] was 60, the “Waterhemp plant response rating” value [15, 17] was 70 and the “Plant response rating, Waterhemp” value [15, 18] was 75. The “Waterhemp plant response rating” value [15, 19] was 70.
`CSCC(=O)Oc1c(C)nn(C)c(=O)c1-c1cccc2ccccc12` [Compound 171] was tested, and the “Plant response rating, Barnyardgrass” value [1, 16] was 15, the “Barnyardgrass plant response rating” value [1, 17] was 35 and the “Plant response rating, Barnyardgrass” value [1, 18] was 60. The “Plant response rating, Barnyardgrass” value [1, 20] was 5, the “Plant response rating, Barnyardgrass” value [1, 21] was 35 and the “Plant response rating, Barnyardgrass” value [1, 22] was 75. For the same compound, the “Barnyardgrass plant response rating” value [1, 23] was 95, the “Barnyardgrass plant response rating” value [1, 19] was 40 and the “Plant response rating, Lambsquarters” value [2, 16] was 90. The “Lambsquarters plant response rating” value [2, 17] was 95, the “Plant response rating, Lambsquarters” value [2, 18] was 100 and the “Plant response rating, Lambsquarters” value [2, 20] was 98. For the same compound, the “Plant response rating, Lambsquarters” value [2, 21] was 95, the “Plant response rating, Lambsquarters” value [2, 22] was 95 and the “Lambsquarters plant response rating” value [2, 23] was 100. For the same compound, the “Lambsquarters plant response rating” value [2, 19] was 98, the “Plant response rating, Foxtail, Giant” value [3, 16] was 10 and the “Foxtail, Giant plant response rating” value [3, 17] was 25. The “Plant response rating, Foxtail, Giant” value [3, 18] was 75, the “Foxtail, Giant plant response rating” value [3, 19] was 50 and the “Plant response rating, Morningglory” value [4, 16] was 90. For the same compound, the “Morningglory plant response rating” value [4, 17] was 100, the “Plant response rating, Morningglory” value [4, 18] was 100 and the “Plant response rating, Morningglory” value [4, 20] was 85. The “Plant response rating, Morningglory” value [4, 21] was 90, the “Plant response rating, Morningglory” value [4, 22] was 95 and the “Morningglory plant response rating” value [4, 23] was 98. The “Morningglory plant response rating” value [4, 19] was 100, the “Plant response rating, Crabgrass, Large” value [5, 16] was 5 and the “Crabgrass, Large plant response rating” value [5, 17] was 20. For the same compound, the “Plant response rating, Crabgrass, Large” value [5, 18] was 55, the “Plant response rating, Crabgrass, Large” value [5, 20] was 0 and the “Plant response rating, Crabgrass, Large” value [5, 21] was 45. The “Plant response rating, Crabgrass, Large” value [5, 22] was 60, the “Crabgrass, Large plant response rating” value [5, 23] was 80 and the “Crabgrass, Large plant response rating” value [5, 19] was 40. For the same compound, the “Plant response rating, Johnsongrass” value [6, 16] was 5, the “Johnsongrass plant response rating” value [6, 17] was 5 and the “Plant response rating, Johnsongrass” value [6, 18] was 20. For the same compound, the “Plant response rating, Johnsongrass” value [6, 20] was 0, the “Plant response rating, Johnsongrass” value [6, 21] was 5 and the “Plant response rating, Johnsongrass” value [6, 22] was 10. The “Johnsongrass plant response rating” value [6, 23] was 35, the “Johnsongrass plant response rating” value [6, 19] was 15 and the “Plant response rating, Oilseed Rape” value [7, 16] was 0. For the same compound, the “Oilseed Rape plant response rating” value [7, 17] was 0, the “Plant response rating, Oilseed Rape” value [7, 18] was 30 and the “Plant response rating, Oilseed Rape” value [7, 20] was 0. The “Plant response rating, Oilseed Rape” value [7, 21] was 5, the “Plant response rating, Oilseed Rape” value [7, 22] was 50 and the “Oilseed Rape plant response rating” value [7, 23] was 90. The “Oilseed Rape plant response rating” value [7, 19] was 0, the “Plant response rating, Velvetleaf” value [8, 16] was 35 and the “Velvetleaf plant response rating” value [8, 17] was 70. The “Plant response rating, Velvetleaf” value [8, 18] was 100, the “Plant response rating, Velvetleaf” value [8, 20] was 70 and the “Plant response rating, Velvetleaf” value [8, 21] was 90. For the same compound, the “Plant response rating, Velvetleaf” value [8, 22] was 95, the “Velvetleaf plant response rating” value [8, 19] was 100 and the “Plant response rating, Soybean” value (soybean (Glycine max); [16]) was 10. For the same compound, the “Soybean plant response rating” value (soybean (Glycine max); [17]) was 30, the “Plant response rating, Soybean” value (soybean (Glycine max); [18]) was 50 and the “Plant response rating, Soybean” value (soybean (Glycine max); [21]) was 0. For the same compound, the “Plant response rating, Soybean” value (soybean (Glycine max); [22]) was 55, the “Soybean plant response rating” value (soybean (Glycine max); [19]) was 60 and the “Plant response rating, Pigweed” value [9, 16] was 60. For the same compound, the “Pigweed plant response rating” value [9, 17] was 80, the “Plant response rating, Pigweed” value [9, 18] was 100 and the “Plant response rating, Pigweed” value [9, 20] was 70. For the same compound, the “Plant response rating, Pigweed” value [9, 21] was 60, the “Plant response rating, Pigweed” value [9, 22] was 100 and the “Pigweed plant response rating” value [9, 23] was 100. For the same compound, the “Pigweed plant response rating” value [9, 19] was 90, the “Plant response rating, Ragweed” value [10, 16] was 75 and the “Ragweed plant response rating” value [10, 17] was 100. The “Plant response rating, Ragweed” value [10, 18] was 100, the “Plant response rating, Ragweed” value [10, 20] was 65 and the “Plant response rating, Ragweed” value [10, 21] was 80. The “Plant response rating, Ragweed” value [10, 22] was 95, the “Ragweed plant response rating” value [10, 19] was 100 and the “Plant response rating, Blackgrass” value [11, 16] was 5. The “Blackgrass plant response rating” value [11, 17] was 30, the “Plant response rating, Blackgrass” value [11, 18] was 55 and the “Plant response rating, Blackgrass” value [11, 20] was 30. The “Plant response rating, Blackgrass” value [11, 21] was 40, the “Plant response rating, Blackgrass” value [11, 22] was 45 and the “Blackgrass plant response rating” value [11, 23] was 90. The “Blackgrass plant response rating” value [11, 19] was 40, the “Plant response rating, Nutsedge, Yellow” value [12, 16] was 50 and the “Nutsedge, Yellow plant response rating” value [12, 17] was 75. For the same compound, the “Plant response rating, Nutsedge, Yellow” value [12, 20] was 45, the “Plant response rating, Nutsedge, Yellow” value [12, 21] was 55 and the “Plant response rating, Nutsedge, Yellow” value [12, 22] was 70. For the same compound, the “Nutsedge, Yellow plant response rating” value [12, 23] was 90, the “Nutsedge, Yellow plant response rating” value [12, 19] was 75 and the “Plant response rating, Wheat” value [13, 16] was 0. For the same compound, the “Wheat plant response rating” value [13, 17] was 15, the “Plant response rating, Wheat” value [13, 18] was 20 and the “Plant response rating, Wheat” value [13, 20] was 0. For the same compound, the “Plant response rating, Wheat” value [13, 21] was 5, the “Plant response rating, Wheat” value [13, 22] was 45 and the “Wheat plant response rating” value [13, 19] was 30. For the same compound, the “Plant response rating, Galium” value [14, 16] was 95, the “Galium plant response rating” value [14, 17] was 95 and the “Plant response rating, Galium” value [14, 18] was 95. The “Plant response rating, Galium” value [14, 20] was 90, the “Plant response rating, Galium” value [14, 21] was 90 and the “Plant response rating, Galium” value [14, 22] was 98. For the same compound, the “Galium plant response rating” value [14, 23] was 100, the “Galium plant response rating” value [14, 19] was 95 and the “Plant response rating, Waterhemp” value [15, 16] was 75. For the same compound, the “Waterhemp plant response rating” value [15, 17] was 95, the “Plant response rating, Waterhemp” value [15, 18] was 100 and the “Plant response rating, Waterhemp” value [15, 20] was 85. The “Plant response rating, Waterhemp” value [15, 21] was 95, the “Plant response rating, Waterhemp” value [15, 22] was 100 and the “Waterhemp plant response rating” value [15, 19] was 98.

Reference: patent publication US10597388B2, “Pyridazinone herbicides” (FMC CORPORATION, priority 2014, dated 2020)
